From US5753648A, “Tricyclic benzazepine vasopressin antagonists” (American Cyanamid Company, priority 1996, dated 1998)

Assays:
[1] = biological target: T1, Rat Kidney Medullary V2 Receptors (Rattus norvegicus, UniProt Q00788); experiment: biochemical; assay type: binding
T1 construct: Medullary tissues from rat kidneys are dissected out; from tissue; host or cells: rat kidney medulla membranes

[2] = biological target: T2, Vasopressin V1 receptor subtype in Human Platelet Membranes (Homo sapiens, UniProt P37288); experiment: Binding to Vasopressin V1 receptor subtype in Human Platelet Membranes
T2 construct: Frozen platelet rich plasma (PRP), received from the Hudson Valley Blood Services, are thawed to room temperature; tissue Hudson Valley Blood Services; host or cells: human platelets (platelet rich plasma)
T2 sequence (P37288 whole entry): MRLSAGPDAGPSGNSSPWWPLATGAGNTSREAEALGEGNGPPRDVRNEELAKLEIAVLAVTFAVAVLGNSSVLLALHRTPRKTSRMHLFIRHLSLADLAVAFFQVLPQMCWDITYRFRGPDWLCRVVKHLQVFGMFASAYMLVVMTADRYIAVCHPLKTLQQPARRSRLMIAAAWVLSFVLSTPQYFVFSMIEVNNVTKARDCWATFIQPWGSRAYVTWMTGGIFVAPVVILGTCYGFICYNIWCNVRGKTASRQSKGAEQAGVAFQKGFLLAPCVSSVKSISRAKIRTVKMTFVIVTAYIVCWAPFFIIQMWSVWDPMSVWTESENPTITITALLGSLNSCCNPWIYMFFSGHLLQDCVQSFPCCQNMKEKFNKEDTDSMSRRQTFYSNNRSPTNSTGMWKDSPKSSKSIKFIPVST
Protocol: Radioligand Binding Experiments with Human Platelet Membranes
Platelet Source: Hudson Valley Blood Services,
Westchester Medical Center, Valhalla, N.Y.
Platelet Membrane Preparation
Frozen platelet rich plasma (PRP), received from the Hudson Valley Blood Services, are thawed to room temperature. The tubes containing the PRP are centrifuged at 16,000×g for 10 min. at 4° C. and the supernatant fluid discarded. The platelets resuspended in an equal volume of 50.0 mM Tris.HCl, pH 7.5 containing 120 mM NaCl and 20.0 mM EDTA. The suspension is recentrifuged at 16,000×g for 10 min. This washing step is repeated one more time. The wash discarded and the lysed pellets homogenized in low ionic strength buffer of Tris.HCl, 5.0 mM, pH 7.5 containing 5.0 mM EDTA. The homogenate is centrifuged at 39,000×g for 10 min. The resulting pellet is resuspended in Tris.HCl buffer, 70.0 mM, pH 7.5 and recentrifuged at 39,000×g for 10 min. The final pellet is resuspended in 50.0 mM Tris.HCl buffer pH 7.4 containing 120 mM NaCl and 5.0 mM KCl to give 1.0-2.0 mg protein per ml of suspension.
Binding to Vasopressin V1 receptor subtype in Human Platelet Membranes
In wells of 96 well format microtiter plate, add 100 μl of 50.0 mM Tris.HCl buffer containing 0.2% BSA and a mixture of protease inhibitors (aprotinin, leupeptin etc.). Then add 20 μl of [^3 H]Ligand (Manning or Arg^8 Vasopressin), to give final concentrations ranging from 0.01 to 10.0 nM. Initiate the binding by adding 80.0 μl of platelet suspension (approx. 100 μg protein). Mix all reagents by pipetting the mixture up and down a few times. Non specific binding is measured in the presence of 1.0 μM of unlabeled ligand (Manning or Arg^8 Vasopressin). Let the mixture stand undisturbed at room temperature for ninety (90) min. Upon this time, rapidly filter off the incubate under vacuum suction over GF/B filters, using a Brandel® Harvester. Determine the radioactivity caught on the filter disks by the addition of liquid scintillant and counting in a liquid scintillator.

[3] = biological target: T3, oxytocin receptors (Rattus norvegicus, UniProt P70536); experiment: Oxytocin Receptor Binding
T3 sequence (P70536 1-388): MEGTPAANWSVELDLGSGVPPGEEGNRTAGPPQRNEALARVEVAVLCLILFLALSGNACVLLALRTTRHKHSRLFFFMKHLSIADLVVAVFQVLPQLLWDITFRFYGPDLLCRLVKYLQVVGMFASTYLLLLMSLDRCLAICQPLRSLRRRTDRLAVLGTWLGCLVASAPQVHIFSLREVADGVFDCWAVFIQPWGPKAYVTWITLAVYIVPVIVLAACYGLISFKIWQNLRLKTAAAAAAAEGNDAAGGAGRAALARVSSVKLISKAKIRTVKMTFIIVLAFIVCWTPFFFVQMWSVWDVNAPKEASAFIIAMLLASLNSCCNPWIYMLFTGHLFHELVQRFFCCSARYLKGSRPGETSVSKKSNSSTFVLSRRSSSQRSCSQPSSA

[4] = biological target: T4, Human V2 Vasopressin Receptor (Homo sapiens, UniProt P30518); experiment: Binding to Membranes of Mouse Fibroblast Cell Line (LV-2) Transfected with the cDNA Expressing the Human V2 Vasopressin Receptor; settings: for IC50: LV-2 cells transfected with human V2 receptor cDNA, Table 5, read-out: Vasopressin Binding Human V2 Receptor
T4 construct: expressed in transfected cells; host or cells: mouse fibroblast cell line LV-2
T4 sequence (P30518 whole entry): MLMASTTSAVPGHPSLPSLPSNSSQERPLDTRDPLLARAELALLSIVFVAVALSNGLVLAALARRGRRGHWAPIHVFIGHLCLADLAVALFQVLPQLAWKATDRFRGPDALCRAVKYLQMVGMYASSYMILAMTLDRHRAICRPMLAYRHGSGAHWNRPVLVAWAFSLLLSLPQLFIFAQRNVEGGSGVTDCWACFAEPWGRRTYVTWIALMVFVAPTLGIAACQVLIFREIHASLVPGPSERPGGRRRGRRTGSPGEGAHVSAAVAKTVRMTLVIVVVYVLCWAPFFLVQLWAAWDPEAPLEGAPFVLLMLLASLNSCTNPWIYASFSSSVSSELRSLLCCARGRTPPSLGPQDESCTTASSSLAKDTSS
Protocol: Binding to Membranes of Mouse Fibroblast Cell Line (LV-2) Transfected with the cDNA Expressing the Human V2 Vasopressin Receptor Membrane Preparation
Flasks of 175 ml capacity, containing attached cells grown to confluence, are cleared of culture medium by aspiration. The flasks containing the attached cells are rinsed with 2×5 ml of phosphate buffered saline (PBS) and the liquid aspirated off each time. Finally, 5 ml of an enzyme free dissociation Hank's based solution (Specialty Media, Inc., Lafayette, N.J.) is added and the flasks are left undisturbed for 2 min. The content of all flasks is poured into a centrifuge tube and the cells pelleted at 300×g for 15 min. The Hank's based solution is aspirated off and the cells homogenized with a polytron at setting #6 for 10 sec in 10.0 mM Tris.HCl buffer, pH 7.4 containing 0.25M sucrose and 1.0 mM EDTA. The homogenate is centrifuged at 1500×g for 10 min to remove ghost membranes. The supernatant fluid is centrifuged at 100,000×g for 60 min to pellet the receptor protein. Upon completion, the pellet is resuspended in a small volume of 50.0 mM Tris.HCl buffer, pH 7.4. The protein content is determined by the Lowry method and the receptor membranes are suspended in 50.0 mM Tris.HCl buffer containing 0.1 mM phenylmethylsulfonylfluoride (PMSF) and 0.2% bovine serum albumin (BSA) to give 2.5 mg receptor protein per ml of suspension.
For binding experiments, the following is added in μl volume to wells of a 96 well format of a microtiter plate: 100.0 μl of 100.0 mM Tris.HCl buffer containing 0.2% heat inactivated BSA, 10.0 mM MgCl2 and a mixture of protease inhibitors: leupeptin, 1.0 mg %; aprotinin, 1.0 mg %; 1,10-phenanthroline, 2.0 mg %; trypsin inhibitor, 10.0 mg % and 0.1 mM PMSF, 20.0 μl of [^3 H] Arginine^8, vasopressin (S.A. 75.0 Ci/mmole) at 0.8 nM and the reaction initiated by the addition of 80.0 μl of tissue membranes (200.0 μg tissue protein). The plates are left undisturbed on the bench top for 120 min to reach equilibrium. Non specific binding is assessed in the presence of 1.0 μm of unlabeled ligand, added in 20 μl volume. For test compounds, these are solubilized in 50% dimethylsulfoxide (DMSO) and added in 20.0 μl volume to a final incubation volume of 200 μl. Upon completion of binding, the content of each well is filtered off, using a Brandel® cell Harvester (Gaithersburg, Md.). The radioactivity trapped on the filter disk by the ligand-receptor complex is assessed by liquid scintillation counting in a Packard LS Counter, with an efficiency of 65% for tritium. The data are analyzed for IC50 values by the LUNDON-2 program for competition (LUNDON SOFTWARE, Ohio).

[5] = system: Endogenous Arginine Vasopressin Antidiuretic (V2) Response in Conscious Rats; experiment: Antagonism of Endogenous Arginine Vasopressin Antidiuretic (V2) Response in Conscious Rats (urine volume); assay type: in vivo, rat (Sprague-Dawley); settings: 10 mg/kg rat p.o.; 4 hour collection
Description: Effects on the Antagonism of Endogenous Arginine Vasopressin Antidiuretic (V2) Response in Conscious Rats with Free Access to Water Drinking Before but not During the Experiment:
Male or female normotensive Sprague-Dawley rats (Charles River Laboratories, Inc., Kingston, N.Y.) of 400-450 g body weight were supplied with Laboratory Rodent Feed #5001 (PMI Feeds, Inc., Richmond, Id.) and water ad libitum. On the day of test, rats were placed individually into metabolic cages equipped with stainless steel screens (to separate the feces from the urine) and funnels for collection of urine. Vehicle or reference agent was given at various oral doses. During the test, rats were not provided with water or food. Urine was collected for four hours after dosing of the test compound. At the end of four hours, urine volume was measured. Urinary osmolality was determined using a Fiske One-Ten Osmometer (Fiske Associates, Norwood, Mass. 02062) or an Advanced CRYOMATIC Osmometer, Model 3C2 (Advanced Instruments, Norwood, Mass.). Determinations of Na^+, K^+ and Cl^- ion were carried out using ion specific electrodes in a Beckman SYNCHRON EL-ISE Electrolyte System analyzer. In the following results, increased urine volume and decreased osmolality relative to AVP-control indicates activity.

T1 sequence (Q00788 whole entry): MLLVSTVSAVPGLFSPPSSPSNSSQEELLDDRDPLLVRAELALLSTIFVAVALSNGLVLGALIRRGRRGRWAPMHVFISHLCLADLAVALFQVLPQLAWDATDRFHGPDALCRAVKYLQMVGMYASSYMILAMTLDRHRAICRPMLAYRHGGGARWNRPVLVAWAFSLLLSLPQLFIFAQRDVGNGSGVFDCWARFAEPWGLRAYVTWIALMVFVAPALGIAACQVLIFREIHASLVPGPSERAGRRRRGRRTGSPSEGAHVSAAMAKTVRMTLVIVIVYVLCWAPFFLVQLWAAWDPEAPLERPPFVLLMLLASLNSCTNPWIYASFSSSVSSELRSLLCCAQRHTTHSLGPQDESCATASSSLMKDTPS

SMILES	inhibition at 10 µM [3] [%]	IC50 [4] [nM]	Urine Volume [5] [ml/4 hrs]	also measured
Cc1c(F)cccc1C(=O)Nc1ccc(C(=O)N2Cc3cccn3Cc3ccccc32)cn1 [Example 4]	100			IC50 [1]: 1 nM; IC50 ([2]; * V1 receptor subtype in human platelet): 44 nM; IC50 ([3]; rat uterine membranes, [3H]oxytocin): 670 nM
CN(C)CCCNc1ncccc1C(=O)Nc1ccc(C(=O)N2Cc3cccn3Cc3ccccc32)cc1 [Example 335, N-[4-(5H-pyrrolo[2,1-c][1,4]benzodiazepin-10(11H)-ylcarbonyl)phenyl]-2-[(3-dimethylaminopropyl)amino]pyridine-3-carboxamide]				inhibition at 1 µM ([1]; at 1 μM): 60%; inhibition at 1 µM ([2]; 1.5 h, * human platelet V1, at 1 μM): 100%
O=C(Nc1ccc(C(=O)N2Cc3cccn3Cc3ccccc32)c(Cl)c1)c1ccccc1-n1cccc1 [Example 377, N-[3-Chloro-4-(5H,11H-pyrrolo{2,1-c][1,4]benzodiazepine-10-carbonyl)-phenyl]-2-pyrrol-1-yl-benzamide]		4.5	13.2	
O=C(Nc1ccc(C(=O)N2Cc3cccn3Cc3ccccc32)c(Cl)c1)c1cccc2cccnc12 [Example 378, Ouinoline-8-carboxylic acid [4-(5H,11H-pyrrolo[2,1-c][1,4]benzodiazepine-10-carbonyl)-3-phenyl]-amide]		69.1	11.7	
CN(C)Cc1ccc2n1Cc1ccccc1N(C(=O)c1ccc(NC(=O)C3=C(c4ccccc4)CCC3)cc1Cl)C2 [Example 379, [3-Chloro-4-(3-dimethylaminomethyl-5H,11H-pyrrolo[2,1-c][1,4]benzodiazepine-10-carbonyl)-phenyl]-2-phenylcyclopent-1-enecarboxylic acid amide]		12.3	18.9	

Second part, led by results:

inhibition at 10 µM [3] [%]	IC50 [4] [nM]	SMILES	Urine Volume [5] [ml/4 hrs]	also measured
93		COc1cc(C(=O)Nc2ccc(C(=O)N3Cc4cccn4Cc4ccccc43)cn2)cc(OC)c1OC [Example 5]		inhibition at 10 µM ([2]; 1.5 h, * human platelet V1): 51%; inhibition at 10 µM ([4]; ** human V2, LV-2 cell membranes, at 10 μM): 47%
59		COc1cc(C(=O)Nc2ccc(C(=O)N3Cc4ccc(CN(C)C)n4Cc4ccccc43)cn2)cc(OC)c1OC [Example 133, N-[5-[[3-[(Dimethylamino)methyl]-[5H-pyrrolo[2,1-c][1,4]benzodiazepin-10(11H)]yl]carbonyl]-2-pyridinyl]-3,4,5-trimethoxybenzamide]		inhibition at 10 µM ([1]; at 10 μM): 21%; inhibition at 10 µM ([2]; 1.5 h, * human platelet V1): 11%
